Test results reported in publication PMC7760690, “Neuroprotective Metabolites from Vietnamese Marine Derived Fungi of Aspergillus and Penicillium Genera” (Marine Drugs, 2020).
Read-outs that look alike come from different tables or passages of the source.

What was measured:
[1] = system: neuroblastoma Neuro-2a cells; assay: MTT cytotoxicity assay; assay type: cell-based, murine; conditions: up to 100 µM
Description: (§1) The murine neuroblastoma cell line Neuro-2a was purchased from ATCC.
(§2) Neuro-2a cells were cultured in DMEM medium containing 10% fetal bovine serum (Biolot, St. Petersburg, Russia) and 1% penicillin/streptomycin (Biolot, St. Petersburg, Russia). Cells were incubated at 37 °C in a humidified atmosphere containing 5% (v/v) CO2 [71].
(§3) The in vitro cytotoxicity of the individual substances was evaluated using an MTT (3-(4,5-dimethylthiazol-2-yl)-2,5-diphenyltetrazolium bromide) assay, which was performed according to the manufacturer’s instructions (Sigma-Aldrich, USA). Absorbance of the converted formazan was measured using a Multiskan FC plate photometer (Thermo Scientific, Waltham, MA, USA) at λ = 570 nm. The results were presented as percent of control data, and concentration of cell viability inhibition on 50% (IC50) was calculated.

MTT cytotoxicity assay = assay type: cell-based, murine; conditions: mouse, Neuro-2a neuroblastoma cells; Neuro-2a cells, MTT
Description: as §1, §2, §3

[2] = DPPH radical scavenger assay; conditions: 30 min; for DPPH Radical Scavenging 100 µM % of MeOH: compound 100 µM, absorbance 520 nm
Description: The DPPH radical scavenging activities of the compounds were tested as described.
The compounds were dissolved in MeOH, and the solutions (120 µL) were dispensed into wells of a 96-well microplate. In all, 30 µL of the DPPH (Sigma-Aldrich, Steinheim, Germany) solution in MeOH (7.5 × 10^−3 M) was added to each well. The concentrations of the test compounds in the mixtures were 10 and 100 µM. The mixtures were shaken and left to stand for 30 min, and the absorbance of the resulting solutions was measured at 520 nm with a microplate reader MultiscanFC (ThermoScientific, Waltham, MA, USA). The concentration scavenging 50% of the DPPH radical (EC50) was calculated for each investigated compound.

[3] = system: K562, BEL-7042, SGC-7901, A-549 and Hela cell lines; design: method as in PMID 30946944; conditions: cited from earlier work
[4] = system: PQ-treated Neuro-2a cells; assay: ROS level in PQ-treated cells (H2DCFDA); assay type: cell-based, murine; conditions: compounds 1-5; compound 10 µM 1 h, PQ 500 µM 1 h
Description: as §1, §2
[…] Then, 6-OHDA/PQ/rotenone were added to cell suspension to resulting concentration of 50 µM, 500 µM and 10 µM respectively for incubation during 1 h. Cells incubated without neurotoxins and compounds and with neurotoxins alone were used as positive and negative controls, respectively. The 20 µL of 2,7-dichlorodihydrofluorescein diacetate solution (H2DCFDA, Molecular Probes, Eugene, OR, USA) was added to each well (10 µM, final concentration) and the plate was incubated for an additional 10 min at 37 °C. The intensity of dichlorofluorescein fluorescence was measured with PHERAstar FS plate reader (BMG Labtech, Ortenberg, Germany) at λex = 485 nm and λem = 518 nm. The data were processed by MARS Data Analysis v. 3.01R2 (BMG Labtech, Germany). The results were presented as the percent of positive control data.

[5] = system: rotenone-treated Neuro-2a cells; assay: Rotenone-induced PD cell model, cell viability (MTT); assay type: cell-based, murine; conditions: compounds 1-5; 1 and/or 10 µM; rotenone 10 µM; 24 h
Description: as §1, §2
(§4) The neuroblastoma Neuro-2a line cells (1 × 10^4 cells/well) were treated with the test compounds at concentrations of 1 and/or 10 µM for 1 h, and then the neurotoxins were added to the neuroblastoma cell suspensions. Rotenone (Sigma-Aldrich, USA) was used at the concentration of 10 µM. Paraquat (Sigma-Aldrich, USA) was used at 500 µM. 6-Hydroxydopamine (Sigma-Aldrich, USA) was used at 50 µM. Cells incubated without neurotoxins and the test compounds and cells incubated with neurotoxins only were used as positive and negative controls, respectively. After 24 h of incubation, the cell viabilities were measured using the MTT method. The results are presented as the percent of positive control data.

[6] = system: methicillin-resistant Staphylococcus aureus (MRSA), S. aureus, Enterococcus faecalis and Acinetobacter baumannii, E. coli and Klebsiella pneumonia; design: method as in PMID 30946944; conditions: cited from earlier work
[7] = system: PQ-treated Neuro-2a cells; assay: Paraquat-induced PD cell model, cell viability (MTT); assay type: cell-based, murine; conditions: compounds 1-5; 1 and/or 10 µM; paraquat 500 µM; 24 h
Description: as §1, §2, §4

[8] = system: rotenone-treated Neuro-2a cells; assay: ROS level in rotenone-treated cells (H2DCFDA); assay type: cell-based, murine; conditions: compounds 1-5; compound 10 µM 1 h, rotenone 10 µM 1 h
Description: as §1, §2
(§5) The cells (1 × 10^4 cells/well of a 96-well plate) were incubated with compound solutions (10 µM) during 1 h. Then, 6-OHDA/PQ/rotenone were added to cell suspension to resulting concentration of 50 µM, 500 µM and 10 µM respectively for incubation during 1 h. Cells incubated without neurotoxins and compounds and with neurotoxins alone were used as positive and negative controls, respectively. The 20 µL of 2,7-dichlorodihydrofluorescein diacetate solution (H2DCFDA, Molecular Probes, Eugene, OR, USA) was added to each well (10 µM, final concentration) and the plate was incubated for an additional 10 min at 37 °C. The intensity of dichlorofluorescein fluorescence was measured with PHERAstar FS plate reader (BMG Labtech, Ortenberg, Germany) at λex = 485 nm and λem = 518 nm. The data were processed by MARS Data Analysis v. 3.01R2 (BMG Labtech, Germany). The results were presented as the percent of positive control data.

[9] = system: Neuro-2a cells treated with 6-OHDA; assay: 6-OHDA-induced PD cell model, cell viability (MTT); assay type: cell-based, murine; conditions: compounds 1-5; 1 and/or 10 µM; 6-OHDA 50 µM; 24 h
Description: as §1, §2, §4

[10] = system: murine lymphoma L5178Y cell line; design: method as in doi:10.1016/j.phytol.2015.06.003; conditions: cited from earlier work
[11] = cited from earlier work
HeLa = system: HeLa; design: method as in PMID 24871461; conditions: cited from earlier work
[12] = system: several microbial pathogens; design: method as in PMID 17994702, doi:10.1016/j.phytol.2015.04.009; conditions: cited from earlier work
[13] = system: 6-OHDA-treated Neuro-2a cells; assay: ROS level in 6-OHDA-treated cells (H2DCFDA); assay type: cell-based, murine; conditions: compounds 1-5; compound 10 µM 1 h, 6-OHDA 50 µM 1 h
Description: as §1, §2, §5

[14] = system: a number of other cell lines; design: method as in PMID 17994702, PMID 30658264; conditions: cited from earlier work

Structure (SMILES)	cytotoxicity against Neuro-2a cells [1]	IC50 (MTT cytotoxicity assay)	DPPH Radical Scavenging 100 µM % of MeOH [2]	cytotoxic activities [3]	influence on ROS level in PQ-treated cells [4]	effect on viability of rotenone-treated cells [5]	antibacterial activities [6]	effect on viability of PQ-treated cells [7]	influence on ROS level in rotenone-treated cells [8]	effect on viability of Neuro-2a cells incubated with 6-OHDA [9]	cytotoxicity [10]	EC50 ([11]; reported earlier, read-out: DPPH Radical Scavenging EC50)	DPPH radical scavenging activity ([11]; via donation of a hydrogen atom and adduct forming)	cytotoxicity (HeLa)	EC50 ([2]; MeOH, read-out: DPPH Radical Scavenging EC50)	antimicrobial activity [12]	influence on ROS level in 6-OHDA-treated cells [13]	cytotoxicity [14]
Cc1cc(O)c(C)c(=O)o1 [Compound 4, 4-hydroxy-3,6-dimethyl-2-pyrone]	not cytotoxic	> 100 µM	87.2 ± 1.4 % of MeOH	ineffective	had almost no effect	did not affect	ineffective	had no effect on viability	significantly reduced the ROS level	did not demonstrate any protective effects	weak cytotoxicity	500 µM	shows DPPH radical scavenging activity	–	–	–	–	–
C[C@H](O)CC1=C[C@H](O)[C@@H](C)OC1=O [Compound 5, Dihydroaspyrone]	not cytotoxic	> 100 µM	95.2 ± 1.0 % of MeOH	–	significantly reduced the ROS level	did not affect	–	statistically increased viability of PQ-treated cells only	significantly reduced the ROS level	did not demonstrate any protective effects	–	–	–	weak cytotoxicity	> 100 µM	did not show	reduced ROS level	did not show cytotoxicity
